This is an account of results in US7605272B2, “IGF-1R inhibitor” (Kyowa Hakko Kirin Co., Ltd., priority 2005, dated 2009).

Structures can show the parent of a compound that is named as a salt.

The subject of one assay is NCI-H929. In words: Cytostatic activity on human multiple myeloma cell line NCI-H929 (WST-1). Conditions: Homo sapiens, NCI-H929, 72 h, 72 hours; for inhibition at 10 µM: 10 μmol/L, read-out: cytostatic rate (%) H929 (10 μmol/L); for inhibition at 1 µM: 1 μmol/L, read-out: cytostatic rate (%) H929 (1 μmol/L). It counts as cell-based. Put shortly:
(§1)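 Cells pre-cultured 24 h at 37 °C, 5% CO2, then exposed 72 h to compound at final 1 or 10 μmol/L (0.1% DMSO). WST-1 added for 2 h, absorbance at 450 nm (ref 690 nm). Cytostatic rate = 100 minus relative growth, with DMSO control as 100% and blank as 0%.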

The next assay deals with KMS-11. In words: Cytostatic activity on human multiple myeloma cell line KMS-11 (WST-1). Conditions: Homo sapiens, KMS-11, 72 h, 72 hours; for inhibition at 10 µM: 10 μmol/L, read-out: cytostatic rate (%) KMS-11 (10 μmol/L); for inhibition at 1 µM: 1 μmol/L, read-out: cytostatic rate (%) KMS-11 (1 μmol/L). The class given is cell-based. Put shortly: as §1
A further assay deals with T1, IGF-1R (Homo sapiens, UniProt P08069).
T1 construct: purchased Upstate Co. 14-465
In words: IGF-1R inhibitory activity (kinase reaction, time-resolved fluoroimmunoassay). It counts as biochemical. The note with it: IGF-1R active recombinant enzyme, test compound 10 μmol/L. The essentials:
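Compounds were tested at a single 10 μmol/L concentration. Each was incubated with recombinant IGF-1R (200 μg/L), 10 mmol/L ATP, MgCl2/MnCl2 and Na3VO4 (pH 7.5) on immobilized poly(Glu-Tyr) peptide for 30 min at 24° C. Eu-anti-phosphotyrosine time-resolved fluorescence (340/615 nm) gave relative activity against no-compound and no-enzyme wells, reported as % inhibition.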

T1 sequence (P08069 959-1367 limits assumed): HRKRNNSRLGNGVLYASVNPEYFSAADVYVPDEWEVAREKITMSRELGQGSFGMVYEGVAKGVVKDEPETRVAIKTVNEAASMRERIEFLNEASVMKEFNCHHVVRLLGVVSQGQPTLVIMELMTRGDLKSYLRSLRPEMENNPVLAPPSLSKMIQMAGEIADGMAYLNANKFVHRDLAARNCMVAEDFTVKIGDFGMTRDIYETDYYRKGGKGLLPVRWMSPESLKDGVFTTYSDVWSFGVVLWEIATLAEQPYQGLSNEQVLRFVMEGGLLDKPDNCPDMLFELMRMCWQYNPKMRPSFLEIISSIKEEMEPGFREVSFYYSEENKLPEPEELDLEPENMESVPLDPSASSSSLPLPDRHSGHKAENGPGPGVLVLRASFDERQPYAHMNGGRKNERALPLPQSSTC

For the compound `O=C1c2ccccc2C(=O)N1c1cc2c(cc1/C=C/c1n[nH]c3ccccc13)OCO2` [Compound 151, (E)-N-2-{6-[2-(1H-indazol-3-yl)vinyl]benzo[1,3]dioxol-5-yl}isoindole-1,3-dione], the inhibition at 10 µM with NCI-H929 turned out to be 104%; with KMS-11, 83.2%; at IGF-1R, 100%.
In the case of `Cc1cc(C(=O)Nc2ccccc2/C=C/c2n[nH]c3ccccc23)ccc1N` [Compound 158, (E)-4-amino-N-{2-[2-(1H-indazol-3-yl)vinyl]phenyl}-3-methylbenzamide], the inhibition at 10 µM worked out at 113% in the assay with NCI-H929, 108% with KMS-11 and 99.5% at IGF-1R.
`O=C1c2ccccc2C(=O)N1c1ccccc1/C=C/c1n[nH]c2ccccc12` [Compound 159, (E)-2-{2-[2-(1H-indazol-3-yl)vinyl]phenyl}isoindole-1,3-dione]: the inhibition at 10 µM came out at 104% with NCI-H929, 75.5% in the assay on KMS-11 and 99.9% on IGF-1R.
Regarding `NC(=S)Nc1ccccc1/C=C/c1n[nH]c2ccccc12` [Compound 161, (E)-N-{2-[2-(1H-indazol-3-yl)vinyl]phenyl}thiourea], the values for the inhibition at 10 µM with NCI-H929, with KMS-11 and on IGF-1R were 113%, 92.8% and 95.9%, respectively.
Consider `Cc1ncsc1C(=O)Nc1ccccc1/C=C/c1n[nH]c2ccccc12` [Compound 174, (E)-N-{2-[2-(1H-indazol-3-yl)vinyl]phenyl}-4-methylthiazole-5-carboxamide], for which the inhibition at 10 µM was 109% in the assay with NCI-H929, 82.6% in the assay on KMS-11 and 103% on IGF-1R.
With `Nc1ccc2c(c1)C(=O)N(c1ccccc1/C=C/c1n[nH]c3ccccc13)C2=O` [Compound 193, (E)-5-amino-2-{2-[2-(1H-indazol-3-yl)vinyl]phenyl}isoindole-1,3-dione], the inhibition at 10 µM in the assay with NCI-H929 is 124%; in the assay on KMS-11, 167%; at IGF-1R, 100%.
As for `COC(=O)c1c[nH]c(-c2ccccc2/C=C/c2n[nH]c3ccccc23)n1` [Compound 195, (E)-2-{2-[2-(1H-indazol-3-yl)vinyl]phenyl}-3H-imidazole-4-carboxylic acid methyl ester], the values for the inhibition at 10 µM in the assay with NCI-H929, in the assay on KMS-11 and at IGF-1R were 111%, 97.7% and 100%, respectively.
For the compound `O=C1c2ccccc2CN1c1ccccc1/C=C/c1n[nH]c2ccccc12` [Compound 213, (E)-2-{2-[2-(1H-indazol-3-yl)vinyl]phenyl}-2,3-dihydroisoindole-1-one], the inhibition at 10 µM was 127% in the assay with NCI-H929, 121% with KMS-11 and 99% at IGF-1R.
As to `Nc1cccc2c1CN(c1ccccc1/C=C/c1n[nH]c3ccccc13)C2=O` [Compound 216, (E)-4-amino-2-{2-[2-(1H-indazol-3-yl)vinyl]phenyl}-2,3-dihydroisoindole-1-one], the inhibition at 10 µM in the assay with NCI-H929 turned out to be 109%; in the assay on KMS-11, 90.9%; at IGF-1R, 96.5%.
As to `Cc1ccsc1C(=O)Nc1cc(C(=O)N2CCN(C=O)CC2)ccc1/C=C/c1n[nH]c2ccccc12` [Compound 218, (E)-N-{2-[2-(1H-indazol-3-yl)vinyl]-5-(4-formylpiperazin-1-ylcarbonyl)phenyl}-3-methylthiophene-2-carboxamide hydrochloride], the inhibition at 1 µM in the assay on NCI-H929 is 112%; in the assay on KMS-11, 106%. Besides, the inhibition at 10 µM on IGF-1R worked out at 98.6%.
`Cc1ccsc1C(=O)Nc1cc(C(=O)N2CCC(O)CC2)ccc1/C=C/c1n[nH]c2ccccc12` [Compound 219, (E)-N-{2-[2-(1H-indazol-3-yl)vinyl]-5-(4-hydroxypiperidin-1-ylcarbonyl)phenyl}-3-methylthiophene-2-carboxamide hydrochloride]: the inhibition at 1 µM in the assay with NCI-H929 amounted to 111%; in the assay with KMS-11, 108%. Further, the inhibition at 10 µM on IGF-1R was determined as 99.4%.
With `Cc1ccsc1C(=O)Nc1cc(C(=O)N2CC[C@@H](O)C2)ccc1/C=C/c1n[nH]c2ccccc12` [Compound 220, (E)-(R)—N-{2-[2-(1H-indazol-3-yl)vinyl]-5-(3-hydroxypyrrolidin-1-ylcarbonyl)phenyl}-3-methylthiophene-2-carboxamide hydrochloride], the inhibition at 1 µM with NCI-H929 was found to be 110%; in the assay on KMS-11, 97.9%. In addition, the inhibition at 10 µM at IGF-1R was 99.3%.
As for `Cc1ccsc1C(=O)Nc1cc(C(=O)N2C[C@@H](C)O[C@@H](C)C2)ccc1/C=C/c1n[nH]c2ccccc12` [Compound 223, (E)-N-{2-[2-(1H-indazol-3-yl)vinyl]-5-(cis-2,6-dimethylmorpholin-4-ylcarbonyl)phenyl}-3-methylthiophene-2-carboxamide hydrochloride], the inhibition at 1 µM came out at 119% in the assay with NCI-H929 and 120% with KMS-11. On IGF-1R, the inhibition at 10 µM was 101%.
Take `Cc1ccsc1C(=O)Nc1cc(CN2CCOCC2)ccc1/C=C/c1n[nH]c2ccccc12` [Compound 224, (E)-N-{2-[2-(1H-indazol-3-yl)vinyl]-5-(morpholin-4-ylmethyl)phenyl}-3-methylthiophene-2-carboxamide hydrochloride]: the inhibition at 1 µM in the assay with NCI-H929 and in the assay on KMS-11 was 119% in each case. The inhibition at 10 µM at IGF-1R is 100%.
In the case of `Cc1ccsc1C(=O)Nc1ccc(N2CCC(S(C)(=O)=O)CC2)cc1/C=C/c1n[nH]c2ccccc12` [Compound 227, (E)-N-{2-[2-(1H-indazol-3-yl)vinyl]-4-(4-methanesulfonylpiperidin-1-yl)phenyl}-3-methylthiophene-2-carboxamide hydrochloride], the inhibition at 1 µM is 113% in the assay with NCI-H929 and 52.9% with KMS-11. Also, the inhibition at 10 µM on IGF-1R was determined as 98.9%.
For the compound `Cc1ccsc1C(=O)Nc1ccc(N2CCN(C)CC2)cc1/C=C/c1n[nH]c2ccccc12` [Compound 228, (E)-N-{2-[2-(1H-indazol-3-yl)vinyl]-4-(4-methylpiperazin-1-yl)phenyl}-3-methylthiophene-2-carboxamide], the inhibition at 1 µM with NCI-H929 amounted to 114%; with KMS-11 it was 58%. The inhibition at 10 µM at IGF-1R worked out at 100%.
Turning to `Cc1ccsc1C(=O)Nc1cc(C(=O)NCCN(C)C)ccc1/C=C/c1n[nH]c2ccccc12` [Compound 229, (E)-N-{5-[2-(dimethylamino)ethylcarbamoyl]-2-[2-(1H-indazol-3-yl)vinyl]phenyl}-3-methylthiophene-2-carboxamide hydrochloride], the inhibition at 1 µM was 121% in the assay on NCI-H929 and 66.8% in the assay on KMS-11. Moreover, the inhibition at 10 µM at IGF-1R was 99.3%.
For `CCN(CC)CCNC(=O)c1ccc(/C=C/c2n[nH]c3ccccc23)c(NC(=O)c2sccc2C)c1` [Compound 230, (E)-N-{5-(2-diethylaminoethylcarbamoyl)-2-[2-(1H-indazol-3-yl)vinyl]phenyl}-3-methylthiophene-2-carboxamide hydrochloride], the inhibition at 1 µM in the assay on NCI-H929 came out at 124%; in the assay with KMS-11 it was 93.8%. In addition, the inhibition at 10 µM on IGF-1R was found to be 98.9%.
Take `Cc1ccsc1C(=O)Nc1cc(C(=O)N2CCN(C(=O)[C@@H]3CCCN3)CC2)ccc1/C=C/c1n[nH]c2ccccc12` [Compound 231, (S)-(E)-N-{2-[2-(1H-indazol-3-yl)vinyl]-5-[4-(pyrrolidin-2-ylcarbonyl)piperazin-1-ylcarbonyl]phenyl}-3-methylthiophene-2-carboxamide]: the results for the inhibition at 1 µM with NCI-H929 and in the assay on KMS-11 were 122% and 80.2%, respectively. Moreover, on IGF-1R, the inhibition at 10 µM came out at 99.7%.
Turning to `Cc1ccsc1C(=O)Nc1cc(CN2CCN(S(C)(=O)=O)CC2)ccc1/C=C/c1n[nH]c2ccccc12` [Compound 232, (E)-N-{2-[2-(1H-indazol-3-yl)vinyl]-5-(4-methanesulfonylpiperazin-1-ylmethyl)phenyl}-3-methylthiophene-2-carboxamide], the inhibition at 1 µM in the assay with NCI-H929 came to 124%; with KMS-11, 116%. For the same compound, the inhibition at 10 µM at IGF-1R was found to be 101%.
As for `Cc1ccsc1C(=O)Nc1cc(CN2CCN(C)CC2)ccc1/C=C/c1n[nH]c2ccccc12` [Compound 234, (E)-N-{2-[2-(1H-indazol-3-yl)vinyl]-5-(4-methylpiperazin-1-ylmethyl)phenyl}-3-methylthiophene-2-carboxamide], the inhibition at 1 µM came out at 118% in the assay on NCI-H929 and 111% in the assay on KMS-11. Moreover, the inhibition at 10 µM at IGF-1R was 102%.
As to `Cc1ccsc1C(=O)Nc1cc(CN2CCC(S(C)(=O)=O)CC2)ccc1/C=C/c1n[nH]c2ccccc12` [Compound 235, (E)-N-{2-[2-(1H-indazol-3-yl)vinyl]-5-(4-methanesulfonylpiperidin-1-ylmethyl)phenyl}-3-methylthiophene-2-carboxamide], the figures for the inhibition at 1 µM in the assay with NCI-H929 and in the assay with KMS-11 were 115% and 109%, respectively. Further, the inhibition at 10 µM at IGF-1R amounted to 98.3%.
`CCN(CC)CCNCc1ccc(/C=C/c2n[nH]c3ccccc23)c(NC(=O)c2sccc2C)c1` [Compound 236, (E)-N-{5-[(2-diethylaminoethylamino)methyl]-2-[2-(1H-indazol-3-yl)vinyl]phenyl}-3-methylthiophene-2-carboxamide]: the inhibition at 1 µM in the assay with NCI-H929 is 123%; in the assay on KMS-11, 139%. Besides, the inhibition at 10 µM at IGF-1R amounted to 99.5%.
